Data on 4 compounds can be found in patent US20230265151A1, “GIP/GLP1 CO-AGONIST COMPOUNDS” (priority 2020, published 2023).

A word on the Ki: it is the equilibrium dissociation constant of an inhibitor or competing ligand from its target. For orientation: EC50 means the concentration needed to bring the measured effect to its halfway point. One may read the Emax as the maximal effect, on the per cent scale that the assay sets.

Experiment [1] has as its target T1, human Gcg receptor (hGcgR) (Homo sapiens, UniProt P47871).
T1 construct: expressed in transfected cells; crude membranes
Kind of experiment: [125I]-Glucagon binding, SPA with membranes of HEK293 cells expressing hGcgR. Conditions: human GcgR; geometric mean (SEM, n); read-out: Binding Affinity Ki, nM (SEM, n) hGCGR.

Experiment [2] deals with T2, human GIP receptor (hGIPR) (Homo sapiens, UniProt P48546).
T2 construct: expressed in transfected cells; crude membranes
T2 sequence (P48546 22-466): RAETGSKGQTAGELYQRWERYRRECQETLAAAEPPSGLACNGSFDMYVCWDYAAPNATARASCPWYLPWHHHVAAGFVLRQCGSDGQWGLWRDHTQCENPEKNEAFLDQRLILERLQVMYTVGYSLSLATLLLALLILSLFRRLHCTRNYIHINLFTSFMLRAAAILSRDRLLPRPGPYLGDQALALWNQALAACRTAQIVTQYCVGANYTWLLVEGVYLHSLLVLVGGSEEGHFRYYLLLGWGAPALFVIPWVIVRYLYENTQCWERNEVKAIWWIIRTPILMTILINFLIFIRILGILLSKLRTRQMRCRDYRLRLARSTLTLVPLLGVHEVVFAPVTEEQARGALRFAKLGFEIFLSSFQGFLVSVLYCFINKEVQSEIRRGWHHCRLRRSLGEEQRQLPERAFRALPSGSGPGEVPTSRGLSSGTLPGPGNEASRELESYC
Nature of the experiment: [125I]-GIP binding, SPA with membranes of CHO cells expressing hGIPR. To be noted: human GIPR; geometric mean (SEM, n); read-out: Binding Affinity Ki, nM (SEM, n) hGIPR.

Experiment [3] has as its target T3, hGIPR (Homo sapiens, UniProt P48546).
T3 construct: expressed in transfected cells
T3 sequence (P48546 22-466): T2 sequence (P48546 22-466)
Nature of the experiment: Functional cAMP formation (HTRF) in HEK-293 clonal cells expressing hGIPR, 0.1% bovine casein, without or with 1.0% human serum albumin. The format is cell-based. To be noted: for EC50: read-out: hGIPR EC50, nM (SEM, n); for Emax: read-out: hGIPR Emax, % ± SEM. In outline: (§1)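 Readings of the HTRF 665/620 nm ratio, which falls as cAMP rises, were converted to nM cAMP using a standard curve after 30 min peptide exposure at 37° C.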
(In general: cAMP levels reflect the balance of adenylyl cyclase and phosphodiesterase activity.)

Experiment [4] has as its target T4, hGCGR (Homo sapiens, UniProt P47871).
T4 construct: expressed in transfected cells
Kind of experiment: Functional cAMP formation (HTRF) in HEK-293 clonal cells expressing hGCGR, 0.1% bovine casein, without or with 1.0% human serum albumin. It counts as cell-based. Conditions: read-out: hGCGR EC50, nM (SEM, n). In outline:
as §1

The target of experiment [5] is hGLP-1R (Homo sapiens, UniProt P43220). Kind of experiment: Functional cAMP formation (HTRF) in HEK-293 clonal cells expressing hGLP-1R, 0.1% bovine casein, without or with 1.0% human serum albumin. It counts as cell-based. More on the design: expressed in transfected cells. Conditions: for EC50: read-out: hGLP-1R EC50, nM (SEM, n); for Emax: read-out: hGLP-1R Emax, % ± SEM. In outline:
as §1

Setting [6] is: 0.1% bovine casein and 1.0% human serum albumin, 37° C., geometric mean.
Where [7] appears, read: HEK293, 0.1% bovine casein and 1.0% human serum albumin, 37° C., percent of maximal response to GIP(1-42)NH2.
The mark [8] stands for this setting: HEK293, percent of maximal response to GIP(1-42)NH2, 37° C., 0.1% bovine casein, arithmetic mean.
The mark [9] stands for this setting: cAMP, incubated at 37° C., 0.1% bovine casein (no human serum albumin), geometric mean.
The mark [10] stands for this setting: HEK293, 0.1% bovine casein and 1.0% human serum albumin, 37° C., percent of maximal response to GLP-1(7-36)NH2.
[11] abbreviates: HEK293, percent of maximal response to GLP-1(7-36)NH2, 37° C., 0.1% bovine casein, arithmetic mean.
Where [12] appears, read: HEK293, cAMP, 37° C., 0.1% bovine casein and 1.0% human serum albumin, percent of maximal response to GIP(1-42)NH2.
[13] abbreviates: cAMP, 37° C., 0.1% bovine casein (no human serum albumin), geometric mean.
Setting [14] is: cAMP, 37° C., 0.1% bovine casein and 1.0% human serum albumin, geometric mean (SEM, n).
[15] abbreviates: HEK293, cAMP, 37° C., 0.1% bovine casein, percent of maximal response to GLP-1(7-36)NH2, arithmetic mean.

Read-outs that look alike come from different tables or passages of the source. Some results are limits rather than exact numbers.

hGLP-1R, sequence (P43220 24-463): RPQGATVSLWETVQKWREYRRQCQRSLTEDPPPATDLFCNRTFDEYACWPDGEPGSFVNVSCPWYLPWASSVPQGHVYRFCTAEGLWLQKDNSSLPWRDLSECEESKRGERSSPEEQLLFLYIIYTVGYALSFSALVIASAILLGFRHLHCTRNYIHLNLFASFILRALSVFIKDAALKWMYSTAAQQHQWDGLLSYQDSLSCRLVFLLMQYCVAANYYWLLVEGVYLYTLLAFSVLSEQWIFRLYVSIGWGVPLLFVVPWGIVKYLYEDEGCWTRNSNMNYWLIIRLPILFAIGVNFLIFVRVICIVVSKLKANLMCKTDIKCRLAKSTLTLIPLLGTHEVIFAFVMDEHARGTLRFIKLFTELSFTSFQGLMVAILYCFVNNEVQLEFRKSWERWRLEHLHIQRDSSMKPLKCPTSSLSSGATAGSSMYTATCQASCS
T4 sequence (P47871 26-477): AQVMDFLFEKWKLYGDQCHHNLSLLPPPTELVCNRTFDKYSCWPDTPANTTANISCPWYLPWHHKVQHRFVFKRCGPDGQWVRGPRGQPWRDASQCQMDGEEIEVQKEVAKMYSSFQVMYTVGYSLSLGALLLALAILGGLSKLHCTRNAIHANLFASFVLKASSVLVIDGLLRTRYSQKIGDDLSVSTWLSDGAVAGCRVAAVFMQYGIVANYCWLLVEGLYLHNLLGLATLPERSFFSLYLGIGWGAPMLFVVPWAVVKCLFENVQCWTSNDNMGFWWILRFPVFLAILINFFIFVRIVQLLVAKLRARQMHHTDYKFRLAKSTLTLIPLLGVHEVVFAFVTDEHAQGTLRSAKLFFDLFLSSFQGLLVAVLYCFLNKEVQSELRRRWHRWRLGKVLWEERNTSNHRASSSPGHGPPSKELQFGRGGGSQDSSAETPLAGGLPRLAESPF
T1 sequence (P47871 26-477): as above

As to `CC[C@H](C)[C@H](NC(=O)[C@H](CC(C)C)NC(=O)[C@](C)(Cc1ccc(O)cc1)NC(=O)[C@@H](CCC(=O)O)NC(=O)[C@@H](NC(=O)[C@H](Cc1ccccc1)NC(=O)[C@H](CCCCNC(=O)COCCOCCNC(=O)COCCOCCNC(=O)CC[C@H](NC(=O)CCCCCCCCCCCCC(=O)O)C(=O)O)NC(=O)C(C)(C)NC(=O)[C@H](CCC(N)=O)NC(=O)[C@H](C)NC(=O)[C@H](CCCCNC(=O)COCCOCCNC(=O)COCCOCCNC(=O)CC[C@H](NC(=O)CCCCCCCCCCCCC(=O)O)C(=O)O)NC(=O)[C@H](CCCN)NC(=O)[C@H](CC(=O)O)NC(=O)[C@H](CC(C)C)NC(=O)[C@](C)(CC(C)C)NC(=O)[C@@H](NC(=O)[C@H](CO)NC(=O)[C@H](Cc1ccncc1)NC(=O)[C@H](CC(=O)O)NC(=O)[C@H](CO)NC(=O)[C@@H](NC(=O)[C@](C)(Cc1ccccc1F)NC(=O)[C@@H](NC(=O)CNC(=O)[C@H](CCC(=O)O)NC(=O)C(C)(C)NC(=O)[C@@H](N)Cc1ccc(O)cc1)[C@@H](C)O)[C@@H](C)O)[C@@H](C)CC)[C@@H](C)CC)C(=O)N[C@@H](CCC(=O)O)C(=O)NCC(=O)NCC(=O)N1CCC[C@H]1C(=O)N[C@@H](CO)C(=O)N[C@@H](CO)C(=O)NCC(=O)N[C@@H](C)C(=O)N1CCC[C@H]1C(=O)N1CCC[C@H]1C(=O)N1CCC[C@H]1C(=O)N[C@@H](CO)C(N)=O` [Example 15], the Ki in experiment [1] is above 966 nM; in experiment [2] it was 0.0629 nM. For the same compound, the concentration giving a half-maximal response (EC50) is 0.573 nM in experiment [3] (setting [6]); 0.0133 nM in experiment [3] (setting [9]); above 9950 nM in experiment [4] (setting [6]); above 9950 nM in experiment [4] (setting [9]); 24.8 nM in experiment [5] (setting [6]). Also, the Emax in experiment [3] (setting [7]) amounted to 94.4 ± 1.01%; in experiment [3] (setting [8]) it was 95.9 ± 2.34%; in experiment [5] (setting [10]) it was 93.2 ± 3.68%; in experiment [5] (setting [11]) it was 94.3 ± 4.44%.

Consider `CC[C@H](C)[C@H](NC(=O)[C@H](CC(C)C)NC(=O)[C@](C)(Cc1ccc(O)cc1)NC(=O)[C@@H](CCC(=O)O)NC(=O)[C@@H](NC(=O)[C@H](Cc1cccc(F)c1)NC(=O)[C@H](CCC(=O)O)NC(=O)C(C)(C)NC(=O)[C@H](CCC(N)=O)NC(=O)[C@H](C)NC(=O)[C@H](CCCCNC(=O)COCCOCCNC(=O)COCCOCCNC(=O)CC[C@H](NC(=O)CCCCCCCCCCCCC(=O)O)C(=O)O)NC(=O)[C@H](CCCN)NC(=O)[C@H](CC(=O)O)NC(=O)[C@H](CC(C)C)NC(=O)[C@](C)(CC(C)C)NC(=O)[C@@H](NC(=O)[C@H](CO)NC(=O)[C@H](Cc1ccncc1)NC(=O)[C@H](CC(=O)O)NC(=O)[C@H](CO)NC(=O)[C@@H](NC(=O)[C@](C)(Cc1ccccc1F)NC(=O)[C@@H](NC(=O)CNC(=O)[C@H](CCC(=O)O)NC(=O)C(C)(C)NC(=O)[C@@H](N)Cc1ccc(O)cc1)[C@@H](C)O)[C@@H](C)O)[C@@H](C)CC)[C@@H](C)CC)C(=O)N[C@@H](CCC(=O)O)C(=O)NCC(=O)NCC(=O)N[C@@H](CCCCNC(=O)COCCOCCNC(=O)COCCOCCNC(=O)CC[C@H](NC(=O)CCCCCCCCCCCCC(=O)O)C(=O)O)C(=O)N[C@@H](CO)C(=O)N[C@@H](CO)C(=O)NCC(=O)N[C@@H](C)C(=O)N1CCC[C@H]1C(=O)N1CCC[C@H]1C(=O)N1CCC[C@H]1C(=O)N[C@@H](CO)C(N)=O` [Example 64], for which the Ki is above 4780 nM in experiment [1] and 0.161 nM in experiment [2]. Besides, the maximal response (Emax) was 90.5 ± 3.44% in experiment [3] (setting [7]), 92.9 ± 3.06% in experiment [3] (setting [8]), 87.8 ± 0.301% in experiment [5] (setting [10]) and 97.3 ± 4.13% in experiment [5] (setting [11]). The EC50 in experiment [3] (setting [9]) is 0.0158 nM; in experiment [4] (setting [6]) it was above 9950 nM; in experiment [4] (setting [9]) it was above 9950 nM; in experiment [5] (setting [6]) it was 27 nM; in experiment [5] (setting [9]), 0.557 nM.

Turning to `CC[C@H](C)[C@H](NC(=O)[C@H](CC(C)C)NC(=O)[C@](C)(Cc1ccc(O)cc1)NC(=O)[C@H](CCCCNC(=O)COCCOCCNC(=O)COCCOCCNC(=O)CC[C@H](NC(=O)CCCCCCCCCCCCC(=O)O)C(=O)O)NC(=O)[C@@H](NC(=O)[C@H](Cc1ccccc1)NC(=O)[C@H](CCC(=O)O)NC(=O)C(C)(C)NC(=O)[C@H](CCC(N)=O)NC(=O)[C@H](C)NC(=O)[C@H](CCC(N)=O)NC(=O)[C@H](CCCN)NC(=O)[C@H](CC(=O)O)NC(=O)[C@H](CC(C)C)NC(=O)[C@](C)(CC(C)C)NC(=O)[C@@H](NC(=O)C(C)(C)NC(=O)[C@H](Cc1ccncc1)NC(=O)[C@H](CC(=O)O)NC(=O)[C@H](CO)NC(=O)[C@@H](NC(=O)[C@](C)(Cc1ccccc1F)NC(=O)[C@@H](NC(=O)CNC(=O)[C@H](CCC(=O)O)NC(=O)C(C)(C)NC(=O)[C@@H](N)Cc1ccc(O)cc1)[C@@H](C)O)[C@@H](C)O)[C@@H](C)CC)[C@@H](C)CC)C(=O)N[C@@H](CCCCNC(=O)COCCOCCNC(=O)COCCOCCNC(=O)CC[C@H](NC(=O)CCCCCCCCCCCCC(=O)O)C(=O)O)C(=O)NCC(=O)NCC(=O)N1CCC[C@H]1C(=O)N[C@@H](CO)C(=O)N[C@@H](CO)C(=O)NCC(=O)N[C@@H](C)C(=O)N1CCC[C@H]1C(=O)N1CCC[C@H]1C(=O)N1CCC[C@H]1C(=O)N[C@@H](CO)C(N)=O` [Example 411], the results for the inhibition constant Ki in experiment [1] and in experiment [2] were above 957 nM and 0.0375 nM, respectively. The Emax in experiment [3] (setting [12]) was determined as 84.6%; in experiment [5] (setting [15]), 110%. For the same compound, the half-maximal effective concentration (EC50) in experiment [3] (setting [13]) was 0.0102 nM; in experiment [3] (setting [14]), 1.09 nM; in experiment [4] (setting [13]) it was above 9950 nM; in experiment [4] (setting [14]) it was above 9950 nM; in experiment [5] (setting [13]), 0.167 nM; in experiment [5] (setting [14]), 11.4 nM.

In the case of `CC[C@H](C)[C@H](NC(=O)[C@H](CC(C)C)NC(=O)[C@](C)(Cc1ccc(O)cc1)NC(=O)[C@H](CCCCNC(=O)COCCOCCNC(=O)COCCOCCNC(=O)COCCOCCNC(=O)CC[C@H](NC(=O)CCCCCCCCCCCCC(=O)O)C(=O)O)NC(=O)[C@@H](NC(=O)[C@H](Cc1ccccc1)NC(=O)[C@H](CCC(=O)O)NC(=O)C(C)(C)NC(=O)[C@H](CCC(N)=O)NC(=O)[C@H](C)NC(=O)[C@H](CCC(N)=O)NC(=O)[C@H](CCCN)NC(=O)[C@H](CC(=O)O)NC(=O)[C@H](CC(C)C)NC(=O)[C@](C)(CC(C)C)NC(=O)[C@@H](NC(=O)C(C)(C)NC(=O)[C@H](Cc1ccncc1)NC(=O)[C@H](CC(=O)O)NC(=O)[C@H](CO)NC(=O)[C@@H](NC(=O)[C@](C)(Cc1ccccc1F)NC(=O)[C@@H](NC(=O)CNC(=O)[C@H](CCC(=O)O)NC(=O)C(C)(C)NC(=O)[C@@H](N)Cc1ccc(O)cc1)[C@@H](C)O)[C@@H](C)O)[C@@H](C)CC)[C@@H](C)CC)C(=O)N[C@@H](CCCCNC(=O)COCCOCCNC(=O)COCCOCCNC(=O)COCCOCCNC(=O)CC[C@H](NC(=O)CCCCCCCCCCCCC(=O)O)C(=O)O)C(=O)NCC(=O)NCC(=O)N1CCC[C@H]1C(=O)N[C@@H](CO)C(=O)N[C@@H](CO)C(=O)NCC(=O)N[C@@H](C)C(=O)N1CCC[C@H]1C(=O)N1CCC[C@H]1C(=O)N1CCC[C@H]1C(=O)N[C@@H](CO)C(N)=O` [Example 460], the Ki is above 959 nM in experiment [1] and 0.0528 nM in experiment [2]. Besides, the figures for the Emax in experiment [3] (setting [12]) and in experiment [5] (setting [15]) were 89.5% and 111%, respectively. The EC50 in experiment [3] (setting [13]) is 0.0108 nM; in experiment [4] (setting [13]) it was above 9950 nM; in experiment [4] (setting [14]), above 9950 nM; in experiment [5] (setting [13]), 0.187 nM; in experiment [5] (setting [14]) it was 6.31 nM.
